According to EP2050758A1, “New polypeptides and uses thereof in cancer therapy” (INSTITUT NATIONAL DE LA SANTE ET DE LA RECHERCHE MEDICALE …, priority 2007, dated 2009):

Assays:
[1] = system: ATPase domain of HSP70; settings: MAMELAK & LINGWOOD, J. Biol. Chem. 2001; cited from earlier work
[2] = system: B16F10 melanoma cells; experiment: Tumor growth of aptamer-expressing B16F10 cells injected subcutaneously into syngeneic mice; format: in vivo, C57/B16 mice; settings: mice bearing control tumors (wt B16F10 and B16F10-A0), cisplatin 10 mg/kg
Description: To determine whether the chemosensitizing effect of A8 and A18 aptamers observed in vitro was also detected in vivo, mouse B16F10 melanoma cells were stably transfected with the aptamer expression vectors (A8, A18 and, as a control, A0). Stably transfected cells were selected using G418 (SIGMA) according to the manufacturer's instruction.
Exponentially growing B16F10 cells (wild type and aptamers-transfected) were harvested, washed in PBS, and resuspended in RPMI medium without foetal bovine serum (FBS) to a concentration of 2x10^5 B16F10 cells in 100 µl. B16F10 cells were then injected subcutaneously into the right side of syngeneic C57/B16 mice (9 mice/group). Next, some mice bearing B16F10-A0, B16F10-A8 or B16F10-A18 tumors were treated with cisplatin (10 mg/kg), given intraperitonealy as a single dose at day 6 after tumor cells injection. Tumor volume was evaluated for all mice every two days, using a caliper to measure two perpendicular diameters.

Row | Compound | binding to the ATPase domain of HSP70 [1] | effect of cisplatin treatment on the size of the tumors [2]
1 | 3'-sulfogalactosyl ceramide [SGC] | known to bind | 
2 | 3'-sulfogalactosylglycerolipid [SGG] | known to bind | 
3 | N.N.[Cl][Pt][Cl] [cisplatin] |  | slightly reduced the size of the tumors
